This passage reports EC50 and Emax results from patent publication US20230265151A1, “GIP/GLP1 CO-AGONIST COMPOUNDS” (priority 2020, published 2023).

Type in all cases: cell-based
One experiment has as its target T1, hGIPR (Homo sapiens, UniProt P48546).
T1 construct: expressed in transfected cells
T1 sequence (P48546 22-466): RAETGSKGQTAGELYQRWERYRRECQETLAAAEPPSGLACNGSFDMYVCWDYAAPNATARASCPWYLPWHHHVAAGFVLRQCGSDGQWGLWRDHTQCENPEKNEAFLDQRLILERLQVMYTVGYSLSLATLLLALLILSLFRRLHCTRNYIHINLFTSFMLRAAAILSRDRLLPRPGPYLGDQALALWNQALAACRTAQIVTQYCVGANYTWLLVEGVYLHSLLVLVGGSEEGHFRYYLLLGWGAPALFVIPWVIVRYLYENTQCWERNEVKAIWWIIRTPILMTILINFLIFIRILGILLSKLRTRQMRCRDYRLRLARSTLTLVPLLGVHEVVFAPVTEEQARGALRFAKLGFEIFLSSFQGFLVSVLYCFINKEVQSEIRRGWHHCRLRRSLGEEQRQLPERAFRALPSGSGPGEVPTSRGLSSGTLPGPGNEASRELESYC
As to the kind of experiment: Functional cAMP formation (HTRF) in HEK-293 clonal cells expressing hGIPR, 0.1% bovine casein, without or with 1.0% human serum albumin. To be noted: 37° C.; for EC50: geometric mean. The method in brief:
(§1)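 Readings of the HTRF 665/620 nm ratio, which falls as cAMP rises, were converted to nM cAMP using a standard curve after 30 min peptide exposure at 37° C.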

The target of another experiment is T2, hGCGR (Homo sapiens, UniProt P47871).
T2 construct: expressed in transfected cells
As to the kind of experiment: Functional cAMP formation (HTRF) in HEK-293 clonal cells expressing hGCGR, 0.1% bovine casein, without or with 1.0% human serum albumin. The method in brief:
as §1

Another experiment has as its target hGLP-1R (Homo sapiens, UniProt P43220). As to the kind of experiment: Functional cAMP formation (HTRF) in HEK-293 clonal cells expressing hGLP-1R, 0.1% bovine casein, without or with 1.0% human serum albumin. On the set-up: expressed in transfected cells. The settings on record: for EC50: geometric mean. The method in brief:
as §1

Like-named read-outs stand apart in the source and are kept apart here.

T2 sequence (P47871 26-477): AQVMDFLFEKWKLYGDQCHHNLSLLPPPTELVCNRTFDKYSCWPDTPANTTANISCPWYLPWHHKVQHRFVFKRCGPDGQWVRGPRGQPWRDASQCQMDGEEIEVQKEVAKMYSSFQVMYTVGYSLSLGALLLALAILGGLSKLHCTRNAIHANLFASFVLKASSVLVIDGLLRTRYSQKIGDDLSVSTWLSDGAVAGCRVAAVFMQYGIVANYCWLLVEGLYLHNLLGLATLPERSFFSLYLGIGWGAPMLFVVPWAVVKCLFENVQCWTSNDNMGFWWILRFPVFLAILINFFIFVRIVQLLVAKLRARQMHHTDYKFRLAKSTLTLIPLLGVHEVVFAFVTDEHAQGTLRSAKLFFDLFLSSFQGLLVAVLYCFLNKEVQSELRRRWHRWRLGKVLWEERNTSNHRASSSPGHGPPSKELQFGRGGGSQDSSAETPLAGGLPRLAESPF
Chain of hGLP-1R (P43220 24-463): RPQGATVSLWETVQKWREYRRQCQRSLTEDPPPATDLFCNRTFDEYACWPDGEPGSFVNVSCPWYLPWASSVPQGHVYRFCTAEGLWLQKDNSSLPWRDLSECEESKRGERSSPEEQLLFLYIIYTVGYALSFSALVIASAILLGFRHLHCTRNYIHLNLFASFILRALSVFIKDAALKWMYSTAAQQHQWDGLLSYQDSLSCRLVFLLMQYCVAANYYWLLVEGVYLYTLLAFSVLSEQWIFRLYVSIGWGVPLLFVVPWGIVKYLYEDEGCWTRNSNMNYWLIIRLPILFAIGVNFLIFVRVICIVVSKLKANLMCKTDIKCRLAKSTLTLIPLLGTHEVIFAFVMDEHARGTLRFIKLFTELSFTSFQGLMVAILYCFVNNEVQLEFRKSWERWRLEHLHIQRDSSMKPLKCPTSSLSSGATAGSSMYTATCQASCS

With `CC[C@H](C)[C@H](NC(=O)[C@H](CCCN)NC(=O)[C@H](CC(=O)O)NC(=O)[C@H](CC(C)C)NC(=O)[C@](C)(CC(C)C)NC(=O)[C@@H](NC(=O)C(C)(C)NC(=O)[C@@H](NC(=O)[C@H](CC(=O)O)NC(=O)[C@H](CO)NC(=O)[C@@H](NC(=O)[C@](C)(Cc1ccccc1F)NC(=O)[C@@H](NC(=O)CNC(=O)[C@H](CCC(=O)O)NC(=O)C(C)(C)NC(=O)[C@@H](N)Cc1ccc(O)cc1)[C@@H](C)O)[C@@H](C)O)C(C)C)[C@@H](C)CC)C(=O)N[C@@H](C)C(=O)N[C@@H](CCC(N)=O)C(=O)NC(C)(C)C(=O)N[C@@H](CCC(=O)O)C(=O)N[C@@H](Cc1ccccc1)C(=O)N[C@H](C(=O)N[C@@H](CCCCNC(=O)COCCOCCNC(=O)COCCOCCNC(=O)CC[C@H](NC(=O)CCCCCCCCCCOc1ccc(C(=O)O)cc1)C(=O)O)C(=O)N[C@@](C)(Cc1ccc(O)cc1)C(=O)N[C@@H](CC(C)C)C(=O)N[C@H](C(=O)N[C@@H](CCCCNC(=O)COCCOCCNC(=O)COCCOCCNC(=O)CC[C@H](NC(=O)CCCCCCCCCCOc1ccc(C(=O)O)cc1)C(=O)O)C(=O)NCC(=O)NCC(=O)N1CCC[C@H]1C(=O)N[C@@H](CO)C(=O)N[C@@H](CO)C(=O)NCC(=O)N[C@@H](C)C(=O)N1CCC[C@H]1C(=O)N1CCC[C@H]1C(=O)N1CCC[C@H]1C(=O)N[C@@H](CO)C(N)=O)[C@@H](C)CC)[C@@H](C)CC` [Example 313], the EC50 at hGIPR (hGIPR EC50, nM (SEM, n), cAMP, 0.1% bovine casein (no human serum albumin)) is 0.00781 nM; at hGCGR (hGCGR EC50, nM (SEM, n), 0.1% bovine casein and 1.0% human serum albumin, 37° C., geometric mean) it was above 9950 nM; on hGCGR (hGCGR EC50, nM (SEM, n), cAMP, 37° C., 0.1% bovine casein (no human serum albumin), geometric mean), above 9950 nM; at hGLP-1R (hGLP-1R EC50, nM (SEM, n), cAMP, 37° C., 0.1% bovine casein (no human serum albumin)) it was 1.13 nM. On hGLP-1R (HEK293, read-out: hGLP-1R Emax, % ± SEM, 0.1% bovine casein and 1.0% human serum albumin, 37° C., percent of maximal response to GLP-1(7-36)NH2), the Emax was found to be 95%.
For `CC[C@H](C)[C@H](NC(=O)[C@H](CC(C)C)NC(=O)[C@](C)(Cc1ccc(O)cc1)NC(=O)[C@H](CCCCNC(=O)CCCCCCCNC(=O)COCCOCCNC(=O)CC[C@H](NC(=O)CCCCCCCCCCCCC(=O)O)C(=O)O)NC(=O)[C@@H](NC(=O)[C@H](Cc1ccccc1)NC(=O)[C@H](CCCN)NC(=O)C(C)(C)NC(=O)[C@H](CCC(N)=O)NC(=O)[C@H](C)NC(=O)[C@H](CCC(N)=O)NC(=O)[C@H](CCCN)NC(=O)[C@H](CC(=O)O)NC(=O)[C@H](CC(C)C)NC(=O)[C@](C)(CC(C)C)NC(=O)[C@@H](NC(=O)C(C)(C)NC(=O)[C@H](Cc1ccncc1)NC(=O)[C@H](CC(=O)O)NC(=O)[C@H](CO)NC(=O)[C@@H](NC(=O)[C@](C)(Cc1ccccc1F)NC(=O)[C@@H](NC(=O)CNC(=O)[C@H](CCC(=O)O)NC(=O)C(C)(C)NC(=O)[C@@H](N)Cc1ccc(O)cc1)[C@@H](C)O)[C@@H](C)O)[C@@H](C)CC)[C@@H](C)CC)C(=O)N[C@@H](CCCCNC(=O)CCCCCCCNC(=O)COCCOCCNC(=O)CC[C@H](NC(=O)CCCCCCCCCCCCC(=O)O)C(=O)O)C(=O)NCC(=O)NCC(=O)N1CCC[C@H]1C(=O)N[C@@H](CO)C(=O)N[C@@H](CO)C(=O)NCC(=O)N[C@@H](C)C(=O)N1CCC[C@H]1C(=O)N1CCC[C@H]1C(=O)N1CCC[C@H]1C(=O)N[C@@H](CO)C(N)=O` [Example 452], the Emax at hGIPR (HEK293, cAMP, 0.1% bovine casein and 1.0% human serum albumin, percent of maximal response to GIP(1-42)NH2, read-out: hGIPR Emax, % ± SEM) is 100%; on hGLP-1R (HEK293, cAMP, 37° C., 0.1% bovine casein, percent of maximal response to GLP-1(7-36)NH2, arithmetic mean, read-out: hGLP-1R Emax, % ± SEM), 117%. Moreover, the EC50 on hGIPR (cAMP, 0.1% bovine casein (no human serum albumin), read-out: hGIPR EC50, nM (SEM, n)) was 0.0192 nM; on hGCGR (cAMP, 37° C., 0.1% bovine casein (no human serum albumin), geometric mean, read-out: hGCGR EC50, nM (SEM, n)), above 9950 nM; at hGCGR (cAMP, 37° C., 0.1% bovine casein and 1.0% human serum albumin, geometric mean (SEM, n), read-out: hGCGR EC50, nM (SEM, n)) it was above 9950 nM; at hGLP-1R (cAMP, 37° C., 0.1% bovine casein (no human serum albumin), read-out: hGLP-1R EC50, nM (SEM, n)) it was 0.259 nM.
For the compound `CC[C@H](C)[C@H](NC(=O)[C@H](CC(C)C)NC(=O)[C@](C)(Cc1ccc(O)cc1)NC(=O)[C@H](CCCCNC(=O)COCCOCCNC(=O)COCCOCCNC(=O)CC[C@H](NC(=O)CCCCCCCCCCCCC(=O)O)C(=O)O)NC(=O)[C@@H](NC(=O)[C@H](Cc1ccccc1)NC(=O)[C@H](CCC(=O)O)NC(=O)C(C)(C)NC(=O)[C@H](CCC(N)=O)NC(=O)[C@H](C)NC(=O)[C@H](CCCCNC(=O)COCCOCCNC(=O)COCCOCCNC(=O)CC[C@H](NC(=O)CCCCCCCCCCCCC(=O)O)C(=O)O)NC(=O)[C@H](CCCN)NC(=O)[C@H](CC(=O)O)NC(=O)[C@H](CC(C)C)NC(=O)[C@](C)(CC(C)C)NC(=O)[C@@H](NC(=O)[C@H](CO)NC(=O)[C@@H](NC(=O)[C@H](CC(=O)O)NC(=O)[C@H](CO)NC(=O)[C@@H](NC(=O)[C@](C)(Cc1ccccc1F)NC(=O)[C@@H](NC(=O)CNC(=O)[C@H](CCC(=O)O)NC(=O)C(C)(C)NC(=O)[C@@H](N)Cc1ccc(O)cc1)[C@@H](C)O)[C@@H](C)O)C(C)C)[C@@H](C)CC)[C@@H](C)CC)C(=O)N[C@@H](CCC(=O)O)C(=O)NCC(=O)NCC(=O)N1CCC[C@H]1C(=O)N[C@@H](CO)C(=O)N[C@@H](CO)C(=O)NCC(=O)N[C@@H](C)C(=O)N1CCC[C@H]1C(=O)N1CCC[C@H]1C(=O)N1CCC[C@H]1C(=O)N[C@@H](CO)C(N)=O` [Example 114], the Emax at hGIPR (HEK293, read-out: hGIPR Emax, % ± SEM, percent of maximal response to GIP(1-42)NH2, 0.1% bovine casein, arithmetic mean) came out at 93.8%; at hGLP-1R (HEK293, read-out: hGLP-1R Emax, % ± SEM, percent of maximal response to GLP-1(7-36)NH2, 37° C., 0.1% bovine casein, arithmetic mean), 91.7%. Also, the EC50 on hGCGR (hGCGR EC50, nM (SEM, n), cAMP, incubated at 37° C., 0.1% bovine casein (no human serum albumin), geometric mean) is above 9950 nM; on hGLP-1R (hGLP-1R EC50, nM (SEM, n), cAMP, incubated at 37° C., 0.1% bovine casein (no human serum albumin)), 0.176 nM.
In the case of `CC[C@H](C)[C@H](NC(=O)[C@H](CCCN)NC(=O)[C@H](CC(=O)O)NC(=O)[C@H](CC(C)C)NC(=O)[C@](C)(CC(C)C)NC(=O)[C@@H](NC(=O)[C@H](CO)NC(=O)[C@H](Cc1ccncc1)NC(=O)[C@H](CC(=O)O)NC(=O)[C@H](CO)NC(=O)[C@@H](NC(=O)[C@](C)(Cc1ccccc1F)NC(=O)[C@@H](NC(=O)CNC(=O)[C@H](CCC(=O)O)NC(=O)C(C)(C)NC(=O)[C@@H](N)Cc1ccc(O)cc1)[C@@H](C)O)[C@@H](C)O)[C@@H](C)CC)C(=O)N[C@@H](C)C(=O)N[C@@H](CCC(N)=O)C(=O)NC(C)(C)C(=O)N[C@@H](CCCCNC(=O)COCCOCCNC(=O)COCCOCCNC(=O)CC[C@H](NC(=O)CCCc1ccc(C(C)(C)C)cc1)C(=O)O)C(=O)N[C@@H](Cc1ccccc1)C(=O)N[C@H](C(=O)N[C@H](CCC(=O)O)C(=O)N[C@@](C)(Cc1ccc(O)cc1)C(=O)N[C@@H](CC(C)C)C(=O)N[C@H](C(=O)N[C@@H](CCCCNC(=O)COCCOCCNC(=O)COCCOCCNC(=O)CC[C@H](NC(=O)CCCc1ccc(C(C)(C)C)cc1)C(=O)O)C(=O)NCC(=O)NCC(=O)N1CCC[C@H]1C(=O)N[C@@H](CO)C(=O)N[C@@H](CO)C(=O)NCC(=O)N[C@@H](C)C(=O)N1CCC[C@H]1C(=O)N1CCC[C@H]1C(=O)N1CCC[C@H]1C(=O)N[C@@H](CO)C(N)=O)[C@@H](C)CC)[C@@H](C)CC` [Example 204], the EC50 on hGIPR (0.1% bovine casein and 1.0% human serum albumin, read-out: hGIPR EC50, nM (SEM, n)) was 0.341 nM; at hGCGR (0.1% bovine casein and 1.0% human serum albumin, 37° C., geometric mean, read-out: hGCGR EC50, nM (SEM, n)), above 9950 nM; at hGCGR (cAMP, incubated at 37° C., 0.1% bovine casein (no human serum albumin), geometric mean, read-out: hGCGR EC50, nM (SEM, n)), above 9950 nM; at hGLP-1R (0.1% bovine casein and 1.0% human serum albumin, 37° C., read-out: hGLP-1R EC50, nM (SEM, n)), 2.44 nM. Besides, the Emax on hGIPR (HEK293, 0.1% bovine casein and 1.0% human serum albumin, percent of maximal response to GIP(1-42)NH2, read-out: hGIPR Emax, % ± SEM) was found to be 83.3%; at hGLP-1R (HEK293, percent of maximal response to GLP-1(7-36)NH2, 37° C., 0.1% bovine casein, arithmetic mean, read-out: hGLP-1R Emax, % ± SEM) it was 126%.
